# Experimental data as given in a melting point compilation (Tetko et al.; mined from patent text by program, amines drawn as free bases though some values may be those of a salt).
row,melting point [°C],SMILES
1,85 to 87.5,CC1(C)Cc2cccc(OC(=O)Cl)c2O1
2,181,Cc1c2sc3ccccc3nc-2c2ccccc2c1=O
3,176 to 177,COc1ccc(CCCC(=O)Nc2ncc([N+](=O)[O-])s2)cc1
4,256 to 258,CN(C)c1ncc2cc(-c3c(Cl)cccc3Cl)c(=O)n(C)c2n1
5,170 to 176,O=C(O)C(=NOCc1ccc(Cl)cc1Cl)c1csc(NC(=O)C(F)(F)F)n1
6,38,N#Cc1cc(N)ccc1N(CCO)CCO
7,83 to 85,COc1ccc(OC)c(CCc2ccc3ncn(C)c(=O)c3c2)c1
8,89 to 90,COc1cccc(-c2cnn(-c3ccccn3)c2)c1
9,103 to 111,COc1cccc(S(=O)c2cccc(F)c2C#N)c1 (stereo unspecified)
10,149 to 150,CS(=O)c1ccc(C2=C(c3ccccc3)C(=O)C(C)(C)O2)c(F)c1 (stereo unspecified)
11,90 to 92,C=CNC(=S)n1nc(Oc2ncc(C(F)(F)F)cc2Cl)cc1C
12,129,COC(=O)c1cc2cc(OC(F)(F)F)ccc2[nH]1
13,175 to 176,CC(C)(C)OC(=O)N1CCc2c(n(CCOc3ccccc3)c3ccc(Cl)c(Cl)c23)CC1
14,167 to 168,COc1cccc(CCNC(=O)c2nc(N)sc2-c2ccncc2)c1OC
15,123 to 125,Clc1ccc(-c2nc(Br)cnc2Br)cc1
16,202 to 204,CC(C)(C)C(=O)Nc1ccc2cc3c(cc2c1)CCCC3
17,57 to 59,CCCCCCCCCCCCCCCCCNC(=O)OCCOCCOC(=O)N(Cc1ccccn1)C(=O)OCC
18,221 to 223,CC1CCCCC1C(=O)Nc1ccc(-c2cnc(-c3ccc(NC(=O)C4CCCCC4)cc3)[nH]2)cc1 (stereo unspecified)
19,70 to 71,C=CCCO[C@@H](Cc1ccc(OCCc2nc(C(C)(C)C)oc2C)c2ccsc12)C(=O)O
20,60 to 62,C=C1C=C(Oc2cc(C(=O)OC)ccc2OC)C1(F)F
21,203 to 205,Cn1c(COc2ccc(CC3SC(=O)NC3=O)cc2)nc2cc(Cl)cnc21 (stereo unspecified)
22,250 to 252,CSC1=CC2=CN(S)NN2C(SC)=N1
23,192 to 193,CN(c1cccc2cc(C3=NCCS3)[nH]c12)S(=O)(=O)c1cccs1

row,melting point [°C],SMILES
1,160,Cc1ccc(S(=O)(=O)OCC2CCc3ccc4[nH]c(C(F)(F)F)nc4c3O2)cc1 (stereo unspecified)
2,115 to 117,CC(C(=O)Oc1cc(=O)n(-c2cccc(OC(F)(F)F)c2)c2ncccc12)c1ccccc1 (stereo unspecified)
3,212 to 214,COc1cc(OCc2ccccn2)ccc1/C=C/c1cc(/C=C/c2ccc3ccn(S(C)(=O)=O)c3c2)n[nH]1
4,128 to 132,COc1cc(NC(C)=O)c2c3c(c4ccccc4nc13)C=CN2
5,180 to 183,CC(=O)OC(C(=O)N(C)c1ccc(N(C)C(=O)C(OC(C)=O)c2ccccc2)cc1)c1ccccc1 (stereo unspecified)
6,173 to 175,CN1C(=O)c2ccccc2C[C@H]1C(=O)O
7,99 to 100,CCCCOc1nsnc1OC[C@@H]1CCCN1
8,142,CCOC(=O)CC(Cc1ccc(OCCc2nc(-c3ccccc3)oc2C)cc1)C(N)=O (stereo unspecified)
9,43 to 46,CCCCCCCCCCCCCCOc1ccc(OCc2ccccc2)c(C(=O)OC)c1
10,203 to 206,N=c1[nH]c2ccc(Cl)cc2c2nc(C3CCCO3)nn12 (stereo unspecified)
11,144 to 146,CCOC(=O)c1cccc2nc(C(C)C)n(Cc3ccc(-c4ccccc4-c4nnn[nH]4)cc3)c12
12,153 to 154,CC(C)c1cccc(COCCO)c1NC(=O)CC1c2ccccc2Oc2ccccc21
13,196 to 198,Cc1ccc(C(=O)Nc2ccccc2N2CCN(Cc3ccc[nH]3)CC2)c(-c2ccc(C(F)(F)F)cc2)c1
14,226,Cc1cc(-c2cc(C(F)F)n3ncc(C(=O)Nc4cccc(S(=O)(=O)N5CCCC5)c4)c3n2)ccc1C(F)(F)F
15,> 275,N#Cc1cccc(-c2nc(Nc3ccc(C(=O)O)cc3)sc2-c2ccnnc2)c1
16,176 to 179,CCCCOc1cc(CN)cc(S(N)(=O)=O)c1Cc1ccccc1
17,109 to 111,CC(C)c1cccc(C(C)C)c1-n1nnn(C(C)C)c1=S
18,249 to 252,CN(CC#Cc1ccccc1)[C@H]1CC[C@H](c2ccc3[nH]c(=O)oc3c2)CC1
19,58,COc1ccc(S(=O)(=O)C(C)(Cc2ccccc2)C(=O)NO)cc1 (stereo unspecified)
20,59 to 60,Oc1cc2cc(C3CCCCC3)sc2c(Cl)c1Cl
21,192 to 193,O=C(O)c1nc(Cl)cc([N+](=O)[O-])c1Cl
22,210 to 212,COc1ccc(-c2nc(N3CCNCC3)c3c(C)c(C#N)sc3n2)cc1
23,144 to 147,CCCNC(=O)NCCCCCN1CCC(CNC(=O)c2cc(Cl)c(N)cc2OC)CC1

row,melting point [°C],SMILES
1,185 to 192,COc1cc(/C=C/C(=O)CC(=O)/C=C/c2ccc(O)cc2Cl)ccc1O
2,165 to 167,COc1c2c(cc3ccc(OC(C)=O)cc13)-c1ccc(OC(C)=O)cc1CO2
3,161 to 162,NN=C1CCCCC1n1nc(-c2c(-c3ccccc3)nn3ccccc23)ccc1=O (stereo unspecified)
4,160 to 161,CS(=O)(=O)c1cc(F)cc(Cc2cc3cccc(-c4cccc(C(=O)NCC(N)=O)c4)c3s2)c1
5,137 to 138,Nc1ccc(C(=O)c2ccccn2)cc1N
6,196 to 198,O=C(CCc1ccccc1)NC(C(=O)Nc1n[nH]c(=S)s1)c1ccccc1 (stereo unspecified)
7,132 to 133,COP(=O)(CC(COc1cccc(C(F)(F)F)c1)=NNC(N)=O)OC
8,171,Cc1[nH]c(Cl)c(C#N)c1SC#N
9,175 to 178,CC1(C)CC(n2cc(C#N)c3ccccc32)c2cc(C#N)ccc2O1 (stereo unspecified)
10,59 to 61,CC(C)(C)[Si](OCCOc1ccc(N)cn1)(c1ccccc1)c1ccccc1
11,141 to 142,COc1ccc(CCCCOCc2cccc(/C=C/c3cccc(NC(=O)CCC(C)(C)C(=O)O)c3)n2)cc1
12,> 240,CC#Cc1cc(C)c(C2=C(O)C3(CCN(OC)CC3)N(C)C2=O)c(C)c1
13,52 to 54,CN(C)CCSCc1c(CCN(C)C)[nH]c2ccccc12
14,228 to 230,O=c1c2cc(F)c(N3CCCC3)c(F)c2n(C2CC2)c(=O)n1O
15,138 to 140,O=C(Nc1ccc(CN2CCNCC2)cc1)c1cc(=O)c2ccccc2o1
16,112 to 113,CCOC(=O)n1c(C)c(Cc2ccc(Cl)cc2Cl)c2nc(C#N)ccc21
17,101 to 106,CN(C)S(=O)(=O)c1cccc(S(N)(=O)=O)c1
18,120 to 122,C#CCNC(=O)N1CC(Oc2ccc(Cl)cc2)C1
19,143 to 144,O=C(CCC(F)([N+](=O)[O-])[N+](=O)[O-])NNC(=O)C(F)(F)C(F)(F)C(F)(F)F
20,74.6,CC(=O)[C@H]1CC[C@H](c2ccc(Cl)cc2)CC1
21,162,CC(=NO)c1ccc2c(c1O)OC(CO)CO2 (stereo unspecified)
22,188,COc1ccc(Br)c(C(=O)N2CCN(S(=O)(=O)c3ccc(Cl)cc3)CC2)c1
23,172 to 173,FCCn1ncnc1COc1nn2c(-c3ccccc3F)nncc2c1-c1ccccc1F

row,melting point [°C],SMILES
1,177 to 180,O=C(O)CCc1cnoc1-c1ccc(Cl)c(Br)c1
2,54 to 55,CCCCCOc1c(OC)cc([N+](=O)[O-])c2nccc(C)c12
3,138 to 139,c1ccc2c(c1)c1c(N3CCCC3)nc(N3CCCC3)nc1n2CCN1CCOCC1
4,123 to 124,CC(C)(C)c1cc(I)c2c(c1)CNC1(CCSCC1)O2
5,269,N=C(N)c1ccc(N2CC(CN3CCN(CCC(=O)O)CC3)OC2=O)cc1 (stereo unspecified)
6,142 to 145,[N-]=[N+]=NC1CCc2ccccc2NC1=O (stereo unspecified)
7,275 to 278,Nc1cccc2c1ncc1nc3n(c12)CCCC3
8,253 to 254,CC(=O)NC[C@H]1CN(c2ccc(C(=O)c3cnc4nc(C)cc(C)n34)cc2)C(=O)O1
9,186 to 188,CONC(=O)c1cc(C(=O)OC)c2cc(Cc3ccc(F)cc3)cnc2c1O
10,102 to 103,O=C1c2ccccc2C(=O)N1CC(=C(F)F)c1ccccc1
11,246 to 248,CCOC(=O)c1cn(C2CC2)c2nc(N3CCC(NC(C)=O)C3)c(F)cc2c1=O (stereo unspecified)
12,122 to 125,CN1Cc2c(Cl)cccc2SCC1=O
13,95 to 98,CCOC(=O)C(=O)N1CCN(c2ccccc2C(C)(C)C)CC1
14,115 to 116,COC(=O)Cc1c(Cl)nc(C)nc1Nc1ccccc1
15,251,Nc1cc(C(=O)O)cc(S(N)(=O)=O)c1Nc1ccccc1
16,114,Cc1nc2cccc(OCC=CCN3CCN(C4c5ccccc5CCc5ccccc54)CC3)c2s1
17,167 to 171,CCNC(=O)/C=C(C)/C=C/C(F)=C(C)/C=C/c1c(C)sc(C)c1C
18,153 to 155,CCCc1nc2c(N)nc3c(c2n1CCOCCS(C)(=O)=O)CCCC3
19,238 to 240,CCOc1ccc(C(=O)NCc2ccc3c(c2)C(=O)N(C2CCC(=O)NC2=O)C3=O)nn1 (stereo unspecified)
20,165 to 166,COc1cccc(CC(=O)O)c1OCCc1cn(-c2ccc(C(F)(F)F)cn2)nc1C(C)C
21,224 to 226,CCCC(=O)c1cc(C(=O)C(=O)OC(=O)C(=O)c2cc(C(=O)CCC)c(C)cc2N)c(N)cc1C
22,161 to 163,CCn1ncc2c(NCC3CCCCC3)c3ccccc3nc21
23,220 to 221,COc1cc2c(cc1OC)-c1c(C=O)c(C#N)cn1CC2

row,SMILES,melting point [°C]
1,CCCCCn1c2ccc(CN3CCCCC3)cc2c2ccc(OC)cc21,64 to 65
2,CC1=C2CCC3C(CCC4(C)C3CCC4(C)O)C2(C)CCC1=O (stereo unspecified),141 to 144
3,Cc1cnc2c(c1)COP(=S)(c1ccccc1)O2 (stereo unspecified),97 to 98
4,Cc1c(-c2ccccc2)oc2c(CN(C)CCCl)cccc2c1=O,118 to 120
5,CN1Cc2c(-c3nc(CCl)cs3)ncn2-c2ccc(F)cc2C1=O,239 to 241
6,CCC1N=C(c2ccccc2F)c2c(ccc(N=C=O)c2Cl)N(C)C1=O (stereo unspecified),243 to 244
7,Cc1cc(NC(=O)C(C)(O)COc2ccccc2F)ccc1[N+](=O)[O-] (stereo unspecified),94 to 96
8,O=C(CBr)Nc1cccc(O)c1,167 to 170
9,c1ccc2c(C3CCNCC3)n[nH]c2c1,213 to 215
